Like-named read-outs stand apart in the source and are kept apart here.

In test [1] the target is T1, CETP (Homo sapiens, UniProt P11597).
T1 sequence (P11597 18-493): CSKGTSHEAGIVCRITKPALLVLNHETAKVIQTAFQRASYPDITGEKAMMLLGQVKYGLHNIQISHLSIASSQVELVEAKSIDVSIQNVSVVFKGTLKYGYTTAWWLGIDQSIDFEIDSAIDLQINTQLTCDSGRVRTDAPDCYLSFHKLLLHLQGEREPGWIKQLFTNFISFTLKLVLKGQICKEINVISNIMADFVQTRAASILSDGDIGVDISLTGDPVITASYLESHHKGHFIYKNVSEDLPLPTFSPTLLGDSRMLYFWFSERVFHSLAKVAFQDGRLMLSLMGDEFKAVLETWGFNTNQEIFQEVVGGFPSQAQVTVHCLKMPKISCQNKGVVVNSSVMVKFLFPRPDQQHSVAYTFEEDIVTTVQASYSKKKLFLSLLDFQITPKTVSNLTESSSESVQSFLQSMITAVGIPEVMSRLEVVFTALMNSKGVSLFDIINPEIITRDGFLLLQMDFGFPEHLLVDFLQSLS
Nature of the test: Ex vivo activity on transgenic hCETP mice (CETP activity in the serum). Further details: from tissue; host or cells: serum of transgenic hCETP mice (host Mus musculus) after oral dosing. The following applies: mouse, 3 mg/kg oral, cholesteryl ester transport. As for the experimental part: 10 μl of buffer and 2 μl of serum are added to 80 μl of test mix, and the mixture is incubated at 37° C. for 4 h.
The change in the fluorescence at 485/535 nm is a measure for the CE transfer; the inhibition of the transfer in comparison to the control batch without substance is determined.
To test for CETP-inhibitory activity, the substances are administered orally using a stomach tube to transgenic hCETP mice bred in-house [Dinchuk et al. BBA 1295-301 (1995)]. To this end, male animals are randomly assigned to groups having an equal number of animals, as a rule n=4, one day before the start of the experiment. Before administration of the substance, blood is taken from each mouse by puncture of the retro-orbital venous plexus for the determination of its basal CETP activity in the serum (T1). The test substance is then administered to the animals using the stomach tube. […]
After termination of the clotting, the blood samples are centrifuged and the serum is removed by pipette. For the determination of the CETP activity, the cholesteryl ester transport over 4 h is determined. […]
The differences in the cholesteryl ester transport [pM CE/h (T2)−pM CE/h (T1)] are calculated for each animal and averaged in the groups. […]

Test [2] addresses T2, CETP in human plasma (Homo sapiens, UniProt P11597).
T2 construct: tissue Sigma P9523; host or cells: human plasma (purchased, unfractionated)
T2 sequence (P11597 18-493): T1 sequence (P11597 18-493)
The test can be described thus: CETP fluorescence test with human plasma. Type of test: biochemical. As to conditions: 86% v/v human plasma, 37° C., 24 h. How it is done: For the production of the donor liposomes, 1 mg of cholesteryl 4,4-difluoro-5,7-dimethyl-4-bora-3a,4a-diaza-s-indacene-3-dodecanoate (cholesteryl BODIPY® FL C1-2, Molecular Probes) is dissolved in 600 μl of dioxane with 5.35 mg of triolein and 6.67 mg of phosphatidylcholine with gentle warming in an ultrasonic bath and this solution is added very slowly with ultrasonication to 63 ml of 50 mM tris/HCl, 150 mM NaCl, 2 mM EDTA buffer pH 7.3 at room temperature. The suspension is then ultrasonicated under an N2 atmosphere for 30 minutes in the Branson ultrasonic bath at about 50 watts, the temperature being kept at about 20° C.
6 μl (12% v/v) of donor liposomes and 1 μl (2% v/v) of a solution of the substance to be investigated in DMSO are added to 42 μl (86% v/v) of human plasma (Sigma P9523), and the mixture is incubated at 37° C. for 24 h.
The change in the fluorescence at 510/520 nm (gap width 2.5 nm) is a measure of the CE transfer; the inhibition of the transfer in comparison to the control batch without substance is determined. […]

In test [3] the target is T1, CETP. The test can be described thus: CETP-SPA test. Further details: CETP is obtained in partially purified form from human plasma; from tissue; host or cells: human plasma (d>1.21 g/ml bottom fraction; Phenyl-Sepharose, CM-Sepharose, Mono Q). Type of test: biochemical. The following applies: transfer of 3H-cholesterol ester from human HDL to biotinylated LDL, 37° C., 18 h. How it is done: (§1) CETP is obtained in partially purified form from human plasma by differential centrifugation and column chromatography and used for the test. To this end, human plasma is adjusted to a density of 1.21 g per ml using NaBr and centrifuged at 4° C. at 50 000 rpm for 18 h. The bottom fraction (d>1.21 g/ml) is applied to a Sephadex® Phenyl-Sepharose 4B (Pharmacia) column, washed with 0.15 M NaCl/0.001 M tris-HCl pH 7.4 and then eluted with distilled water. The CETP-active fractions are pooled, dialyzed against 50 mM sodium acetate pH 4.5 and applied to a CM-Sepharose® column (Pharmacia). The mixture is then eluted using a linear gradient (0-1 M NaCl). The pooled CETP fractions are dialyzed against 10 mM tris/HCl pH 7.4 and then further purified by chromatography on a Mono Q® column (Pharmacia).
50 ml of fresh human EDTA plasma is adjusted to a density of 1.12 using NaBr and centrifuged at 4° C. in a Ty 65 rotor at 50 000 rpm for 18 h. The upper phase is used for the obtainment of cold LDL. […]
For testing of the CETP activity, the transfer of ^3H-cholesterol ester from human HD lipoproteins to biotinylated LD lipoproteins is measured. The reaction is ended by addition of streptavidin-SPA® beads (Amersham) and the transferred radioactivity is determined directly in a liquid scintillation counter. […]

Test [4] deals with T3, CETP (enriched CETP fraction obtained from human plasma) (Homo sapiens, UniProt P11597).
T3 construct: CETP is obtained in partially purified form from human plasma; from tissue; host or cells: human plasma (d>1.21 g/ml bottom fraction; Phenyl-Sepharose, CM-Sepharose, Mono Q)
T3 sequence (P11597 18-493): T1 sequence (P11597 18-493)
The test can be described thus: CETP fluorescence test with enriched CETP. Type of test: biochemical. As to conditions: 37° C., 4 hours, CE transfer between liposomes. How it is done:
as §1
Measurement of the CETP-catalyzed transfer of a fluorescent cholesterol ester between liposomes [modified according to the procedure of Bisgaier et al., J. Lipid Res. 34, 1625 (1993)]: […]
The change in the fluorescence at 485/535 nm is a measure of the CE transfer; the inhibition of the transfer in comparison to the control batch without substance is determined. […]

Regarding `O[C@H]1CC2(CC2)Cc2nc(C3CCCC3)c([C@@H](F)c3ccc(C(F)(F)F)cc3)c(C3CCCCC3)c21` [Example 1], the inhibition at 3 mg/kg in test [1] (serum taken 16 h after administration, read-out: % inhibition at 3 mg/kg 16 h) turned out to be 74%; in test [1] (serum taken 24 h after administration, read-out: % inhibition at 3 mg/kg 24 h), 66%. Further, the half-maximal inhibitory concentration (IC50) is 80 nM in test [2], 32 nM in test [3] and 17 nM in test [4].
Regarding `O[C@H]1CC2(CC2)Cc2nc(C3CCCC3)c([C@@H](F)c3ccc(C(F)(F)F)cc3)c(C3CCCC3)c21` [Example 1], the IC50 was found to be 40 nM in test [2], 24 nM in test [3] and 15 nM in test [4].

By IC50 is commonly meant the concentration needed to halve the response being measured. Read a high IC50 as a need for much substance.
